Consider one sequence from paper PMC9088798, “An Approach to Derive Functional Peptide Inhibitors of Transcription Factor Activity” (JACS Au, 2022).

The assay has as its target T1, cJun bZIP/TRE DNA interaction (Homo sapiens, UniProt P05412).
T1 construct: The human cJun bZIP domain spans from Arg252 to Leu308; His-SUMO (N, cleaved yes); AS cap (two residues Ala-Ser) (N); GAP cap (three residues Gly-Ala-Pro) (C); made in house; host or cells: E. coli (pET21-His-SUMO plasmid)
Put plainly: EMSA, antagonism of cJun/TRE DNA interaction. It counts as biochemical. The note with it: cJun bZIP 20 μM, TRE DNA 2 μM, free DNA band intensity, 4°C 30 minutes, pH 8, 1.3% agarose gel; Hill equation; three independent experiments, one SD. An excerpt: Figure 6 HingeW antagonizes cJun/TRE DNA interaction more effectively than A-FosW. (A) CD spectra showing a shift in the TRE DNA peak at ∼281 nm upon addition of cJun, which is reversed by the titration of HingeW into the sample, as HingeW sequesters the cJun in a nonfunctional heterodimer. […] EMSA showing the (C) unbound TRE DNA band shift upon addition of cJun and the subsequent restoration of the unbound DNA band intensity upon titration of either (D) HingeW or (E) A-FosW. (F). For both CD and EMSA, data was averaged from three independent experiments and the plotted error bars indicate one standard deviation.
To provide further evidence of functional antagonism, an electrophoretic mobility shift assay (EMSA) was employed. […] No bound cJun/TRE DNA band was observed as the overall charge of this complex prohibited entry into the gel. Antagonism was therefore best observed by monitoring the intensity of the free DNA band. […]
Control experiments involved the injection of the antagonist peptide sample into the cell containing ITC buffer alone to determine the heat of dilution which was subtracted. The resulting binding data were fit to a one site binding model to extract the enthalpy change of binding (ΔH) and the equilibrium binding constant (K D), from which the free energy change of binding (ΔG) and the entropy change of binding (ΔS) was calculated (41). […]
On the technique in general: A gel shift assay detects complexes by their altered migration in electrophoresis.

T1 sequence (P05412 252-308): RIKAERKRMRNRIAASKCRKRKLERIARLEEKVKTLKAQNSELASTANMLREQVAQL

The term IC50 denotes the concentration at which inhibition is half-maximal. Turning to “LEQRAEELARENEELEKEAEELEQELDELQAEIEQLEERNYALRKEIEDLQKQLEKL [A-FosW, N-terminal AS and C-terminal GAP caps, 6xHis-tagged]”, 12.1 ± 1.9 µM corresponded to half-maximal inhibition (IC50).
